In patent US20220331310A1, “METHODS FOR ALLEVIATING PTERYGIUM-ASSOCIATED WORRY ABOUT EYE APPEARANCE” (Cloudbreak Therapeutics, LLC, priority 2019, published 2022):

Test system: Patients with Primary or Recurrent Pterygium
Assay: Phase 2a vehicle-controlled study of nintedanib ophthalmic solution; patient questionnaire on symptoms and life impacts (1-5 scale)
Assay type: in vivo, human
Conditions: 0.2% nintedanib ophthalmic solution, topical ocular, TID for 28 days, versus vehicle
Description: A Phase 2a Multicenter, Randomized, Vehicle-Controlled, Dose Escalating Study to Evaluate the Safety, Efficacy and Pharmacokinetics of Nintedanib Ophthalmic Solution in Patients with Primary or Recurrent Pterygium
Objectives of the study were to evaluate ocular and systemic safety of nintedanib and its efficacy in reducing pterygium vascularity in primary or recurrent patients. Several other secondary endpoints were also assessed, including the assessment of symptoms and life impacts by using a questionnaire based on a numerical 1-5 scale. The double-masked, vehicle-controlled, parallel study was conducted with 28 days TID repeat ocular dosing of vehicle and 0.2% nintedanib.
The disclosure focused on the relevant questionnaire endpoint that included 15 questions regarding the ocular symptoms, vision related functioning and the impact on life quality in patients. The questionnaire was derived from the validated Visual Functioning Questionnaire-25 (VFQ-25) (National Eye Institute, 2000) and the validated Ocular Surface Disease Index (OSDI) questionnaire (Schiffman R M, Christianson M D, Jacobsen G, Hirsch J D, Reis B L. Reliability and validity of the Ocular Surface Disease Index. Arch Ophthalmol. 2000; 118 (5): 615-621.). The patients were asked to rate severity using a 5-point scale, with 5 being the most severe.

## COC(=O)c1ccc2c(c1)NC(=O)/C2=C(\Nc1ccc(N(C)C(=O)CN2CCN(C)CC2)cc1)c1ccccc1 [nintedanib]
5-point scale, 5 most severe, FIG. 1
  frequency of worry about eye appearance (question "Worry about eye appearance?", change of questionnaire score): significantly better improvements than the vehicle group
15-question questionnaire derived from VFQ-25 and OSDI
  questionnaire questions showing a significant difference between drug and vehicle: only one out of fifteen questions showed a significant difference
